Results: PMC7547722, “A versatile soluble siglec scaffold for sensitive and quantitative detection of glycan ligands” (Nature Communications, 2020)
Where “and” joins values, the source holds several entries; their conditions need not be identical. Equal values may be shown once.

What was measured:
U937 cells = assay: Flow cytometry, Siglec-Fc pre-complexed with Strep-Tactin, streptavidin or anti-human IgG1; type: cell-based; conditions: for Binding: Suppl Fig 4b
Protocol: (§1) Strep-Tactin-AF647 (0.55 μg/mL, 0.57 pmol), streptavidin (Biolegend), or anti-human igG1 (Biolegend) was added to Siglec supernatant (50 μL) or purified Siglec and allowed to sit at 4 °C for 15 min. After, the pre-complexed solution was added to cells in a 96-well U-bottom plate for 30 min at 4 °C. After, 200 μL of flow buffer (HBSS, 0.1% BSA, 5 mM EDTA) was added and the plate was spun down at 300 rcf for 5 min. The cells were resuspended in 200 μL of flow buffer and processed through the flow cytometer.
(§2) Flow cytometry was performed on a BD LSRFortessa™ X-20 cell analyzer using BD FACSDiva Software Version 8.0.1 and data was processed using FlowJo LLC. Version 9.9.6 and Graphpad Prism 8. The live, single cell populations were gated out with two gates to obtain the median fluorescence intensity (MFI), which indicates binding of the Siglec-Fc-secondary complex to the cell surface. Control cells that were incubated with Strep-Tactin-AF647 (0.55 μg/mL, 0.57 pmol) was used to determine the baseline fluorescence. Number of cells (# cells) plotted indicates percentage of max (% max).

neutrophils (CD15+) = assay: Siglec ligands on peripheral blood immune cells, flow cytometry; type: cell-based, human; conditions: replicate values
Protocol: (§3) For human splenocytes, the sample was homogenized in media through a 40 µm filter (Corning) under sterile conditions. Samples were centrifuged at 300 rcf for 5 min. The resulting pellet from the spleen sample and whole human blood were treated with RBC lysis buffer (7 min) and centrifuged at 300 rcf and the RBC lysis was repeated twice more until no RBC remained in the pellet. Samples were treated with human Fc-receptor blocking agent (TruStain FX, Biolegend) in flow buffer (HBSS, 0.1% BSA, 5 mM EDTA). For analysis, the following cocktail was used: hSig8 (PerCP/Cy5.5, clone 7C9, Biolegend cat. no. 347108, 1:200), hCD123 (PE/Cy7, clone 6H6, Biolegend cat. no. 306010, 1:200), hCD19 (PE, clone SJ25C1, Biolegend cat. no. 363004, 1:200), hCD3 (FITC, BD Pharmingen cat. no. 555332, 1:50), hCD14 (BV605, clone M5E2, BD Horizon cat. no. 564056, 1:200), hCD15 (BUV395, clone HI98, BD Horizon cat. no. 563872, 1:200), hCD56 (BV510, clone NCAM16.2, BD Horizon cat. no. 563041, 1:200). For human peripheral blood samples, we additionally used hHLA-DR (APC-Cy7, clone L243, Biolegend cat. no. 307618, 1:200). Pre-complexed Siglec-Fc/Strep-Tactin-AF647 (described above) was added to the antibody cocktail, added to cells, and allowed to stain at 4 °C for 45 min. The cells were then centrifuged at 300 rcf for 5 min and resuspended in flow buffer containing 1 µg/mL propidium iodide prior to analysis by flow cytometry.
as §2

cDCs (CD123dim/HLA-DR+) = assay: as above; type: cell-based, human; conditions: cDC; replicate values
Protocol: as §3, §2

B-cells (CD19+) = assay: as above; type: cell-based, human; conditions: replicate values
Protocol: as §3, §2

NK cells (CD56+) = assay: as above; type: cell-based, human; conditions: replicate values
Protocol: as §3, §2

T-cells (CD3+) = assay: as above; type: cell-based, human; conditions: replicate values
Protocol: as §3, §2

pDCs (CD123high/HLA-DR+) = assay: as above; type: cell-based, human; conditions: pDC; replicate values
Protocol: as §3, §2

[1] = tested on: T-cells (CD3+), human splenocytes; assay: Siglec-Fc binding to splenocytes, flow cytometry; type: cell-based; conditions: Suppl Fig 12; three replicate columns
Protocol: as §3, §2

[2] = tested on: B-cells (CD19+), human splenocytes; assay: Siglec-Fc binding to splenocytes, flow cytometry; type: cell-based; conditions: Suppl Fig 12; three replicate columns
Protocol: as §3, §2

[3] = tested on: NK cells (CD56+), human splenocytes; assay: Siglec-Fc binding to splenocytes, flow cytometry; type: cell-based; conditions: Suppl Fig 12; three replicate columns
Protocol: as §3, §2

[4] = tested on: monocytes (CD14+), human splenocytes; assay: Siglec-Fc binding to splenocytes, flow cytometry; type: cell-based; conditions: Suppl Fig 12; three replicate columns
Protocol: as §3, §2

[5] = tested on: neutrophils (CD15+), human splenocytes; assay: Siglec-Fc (CD22-Fc V1/V2, with or without Fc receptor block) binding to splenocytes, flow cytometry; type: cell-based; conditions: Suppl Fig 12; three replicate columns
Protocol: (§4) For human splenocytes, the sample was homogenized in media through a 40 µm filter (Corning) under sterile conditions. Samples were centrifuged at 300 rcf for 5 min. The resulting pellet from the spleen sample and whole human blood were treated with RBC lysis buffer (7 min) and centrifuged at 300 rcf and the RBC lysis was repeated twice more until no RBC remained in the pellet. Samples were treated with human Fc-receptor blocking agent (TruStain FX, Biolegend) in flow buffer (HBSS, 0.1% BSA, 5 mM EDTA). […]
as §2, with “Version 9.9.6 and Graphpad Prism 8.” left out, “Number of cells (# cells) plotted indicates percentage of max (% max).” left out

HuH7 cells = assay: Flow cytometry, pre-complexed Siglec-Fc binding; type: cell-based; conditions: Strep-Tactin-AF647, replicates
Protocol: as §1, §2

A549 cells = assay: Flow cytometry, pre-complexed Siglec-Fc binding; type: cell-based; conditions: Strep-Tactin-AF647, replicates
Protocol: as §1, §2

K562 cells = assay: Flow cytometry, pre-complexed Siglec-Fc binding; type: cell-based; conditions: Strep-Tactin-AF647, replicates
Protocol: as §1, §2

Jurkat cells = assay: Flow cytometry, pre-complexed Siglec-Fc binding; type: cell-based; conditions: Strep-Tactin-AF647, replicates
Protocol: as §1, §2

HEK293T cells = assay: Flow cytometry, pre-complexed Siglec-Fc binding; type: cell-based
Protocol: as §1, §2

eosinophils (Siglec-8+) = assay: Siglec ligands on peripheral blood immune cells, flow cytometry; type: cell-based, human; parameters: key: median fluorescence intensity (MFI) of Siglec-Fc complex binding; conditions: replicate values
Protocol: (§5) Siglec supernatant (50 μL) or purified Siglec was incubated with cells in a 96-well U-bottom plate for 30 min at 4 °C. Following the incubation, 200 μL of flow buffer (HBSS, 0.1% BSA, 5 mM EDTA) was added and the plate was spun down at 300 rcf for 5 min. Strep-Tactin-AF647 (0.55 μg/mL, 50 μL, 0.57 pmol), streptavidin (Biolegend), or anti-human IgG1 (Biolegend) was added to the cells and incubated for 30 min at 4 °C. After, 200 μL of flow buffer (HBSS, 0.1% BSA, 5 mM EDTA) was added and the plate was spun down at 300 rcf for 5 min. The cells were resuspended in 200 μL of flow buffer and processed through the flow cytometer.
as §1
as §4, with “pellet.” for “pellet. Samples were treated with human Fc-receptor blocking agent (TruStain FX, Biolegend) in flow buffer (HBSS, 0.1% BSA, 5 mM EDTA).”
as §2, with “Version 9.9.6 and Graphpad Prism 8.” left out, “Number of cells (# cells) plotted indicates percentage of max (% max).” left out

monocytes (CD14+) = assay: as above; type: cell-based, human; parameters: key: median fluorescence intensity (MFI) of Siglec-Fc complex binding; conditions: replicate values
Protocol: as §5, §1
as §4, with “pellet.” for “pellet. Samples were treated with human Fc-receptor blocking agent (TruStain FX, Biolegend) in flow buffer (HBSS, 0.1% BSA, 5 mM EDTA).”
as §2, with “Version 9.9.6 and Graphpad Prism 8.” left out, “Number of cells (# cells) plotted indicates percentage of max (% max).” left out

basophils (CCR3+) = assay: as above; type: cell-based, human; parameters: key: median fluorescence intensity (MFI) of Siglec-Fc complex binding; conditions: replicate values
Protocol: as §5, §1
as §4, with “pellet.” for “pellet. Samples were treated with human Fc-receptor blocking agent (TruStain FX, Biolegend) in flow buffer (HBSS, 0.1% BSA, 5 mM EDTA).”
as §2, with “Version 9.9.6 and Graphpad Prism 8.” left out, “Number of cells (# cells) plotted indicates percentage of max (% max).” left out

T47D = assay: Flow cytometry, pre-complexed Siglec-Fc binding to breast cancer cell line; type: cell-based; conditions: Strep-Tactin-AF647, replicates
Protocol: as §1, §2

BT549 = assay: as above; type: cell-based; conditions: Strep-Tactin-AF647, replicates
Protocol: as §1, §2

MDA-MB-468 = assay: as above; type: cell-based; conditions: Strep-Tactin-AF647, replicates
Protocol: as §1, §2

ZR-75-1 = assay: as above; type: cell-based; conditions: Strep-Tactin-AF647, replicates
Protocol: as §1, §2

MCF7 = assay: as above; type: cell-based; conditions: Strep-Tactin-AF647, replicates
Protocol: as §1, §2

HS578T = assay: as above; type: cell-based; conditions: Strep-Tactin-AF647, replicates
Protocol: as §1, §2

MDA-MB-231 = assay: as above; type: cell-based; conditions: Strep-Tactin-AF647, replicates
Protocol: as §1, §2

CMAS−/− HEK293 cells = assay: Pre-complexed Siglec-Fc binding to sialic acid-deficient cells; type: cell-based; conditions: Suppl Fig 7b; HEK CMASKO
Protocol: Custom crRNA (IDT) was designed to target human CMAS ([…]) and ST6Gal1 ([…]). Cells were seeded at 500,000 cells per well 1 day prior to transfection in a 6-well tissue culture plate. For one well of a 6-well plate, 20 pmol of Cas9 nuclease (IDT), 20 pmol of ATTO-550 labeled crRNA:tracrRNA (IDT) duplex, 8 μL Cas9 Plus reagent (IDT), and 16 μL CRISPRMAX reagent (Thermo Fisher) in 600 μL Opti-MEM medium (Gibco). One day after transfection, cells were removed from the plate by trypsin digestion, washed, resuspended in 300 μl of cell sorting medium (HBSS, 10% FBS, 1 mM EDTA), and stored on ice until sorting. Cells were sorted within the University of Alberta Flow Cytometry Core. The top 5% bright dyes stained with ATTO-550 were sorted into three 96-well plates containing regular culture medium at one cell per well. […]
as §2, with “Version 9.9.6 and Graphpad Prism 8.” left out, “Number of cells (# cells) plotted indicates percentage of max (% max).” left out

[6] = tested on: K562 cells treated with Neuraminidase A; assay: Pre-complexed Siglec-Fc binding with or without Neu-A pretreatment; type: cell-based; conditions: Suppl Fig 7a
Protocol: as §1, §2
K562 cells were incubated with Neuraminidase A at 37 °C for 30 min with shaking every 5 min. Cells were then added to a 96-well U-bottom plate and incubated with pre-complexed Strep-Tactin-AF647/Siglec, as described above.

Strep-tag II = conditions: cited from earlier work

In the case of Sig-1-Fc R116A, the Binding (U937 cells; Amount of Siglec 3.75 ug/mL) is reported as 54.5 and 53.7 and 57.1, the Binding (U937 cells; Amount of Siglec 7.5 ug/mL) is reported as 57.9 and 62.1 and 64.6 and the Binding (U937 cells; Amount of Siglec 15 ug/mL) is reported as 67.9 and 72.2 and 70.4. The Binding (U937 cells; Amount of Siglec 30 ug/mL) was 133 and 128 and 148 and the Binding (U937 cells; Amount of Siglec 60 ug/mL) was 157 and 165 and 148.
With “Sig-8 R128A: Siglec-8-Fc essential arginine mutant” the “Siglec-Fc binding (Figure 3d)” value (neutrophils (CD15+)) was 38.5 and 12.4 and 5.83, the “Siglec-Fc binding (Figure 3d)” value (cDCs (CD123dim/HLA-DR+)) was 60.4 and -24.4 and 18 and the “Siglec-Fc binding (Figure 3d)” value (B-cells (CD19+)) was 41.1 and 12.5 and 42.1. For the same substance, the “Siglec-Fc binding (Figure 3d)” value (NK cells (CD56+)) was 32.1 and 46.5 and 41.2, the “Siglec-Fc binding (Figure 3d)” value (T-cells (CD3+)) was 20.5 and 10.3 and 64.2 and the “Siglec-Fc binding (Figure 3d)” value (pDCs (CD123high/HLA-DR+)) was 74.5 and 11.6 and 48.8. For the same substance, the “Binding, T-cells” value [1] was 6.21 and 2.36 and 4.73, the “Binding, B-cells” value [2] was 3.45 and -1.72 and -2.87 and the “Binding, NK” value [3] was 4.43 and 1.18 and 2.36. For the same substance, the “Binding, Monocytes” value [4] was 15.5 and 9.76 and 8.04, the “Binding, Neutrophils” value [5] was -13.8 and -28.2 and -29.9 and the “binding of pre-complexed Siglec-Fc (MFI)” value (HuH7 cells) was 92.2 and 88.8 and 95.7. For the same substance, the “binding of pre-complexed Siglec-Fc (MFI)” value (A549 cells) was 123 and 130 and 127, the “binding of pre-complexed Siglec-Fc (MFI)” value (K562 cells) was 133 and 120 and 116 and the “binding of pre-complexed Siglec-Fc (MFI)” value (Jurkat cells) was 80.5 and 89.6 and 88.9. For the same substance, the “binding of pre-complexed Siglec-Fc (MFI)” value (HEK293T cells; HEK, Strep-Tactin-AF647, replicates) was 70.7 and 73.5 (2×), the “binding of pre-complexed Siglec-Fc (MFI)” value (U937 cells; U937, Strep-Tactin-AF647, replicates, Fig. 2) was 94.6 and 90.4 and 92.5 and the “Siglec-Fc binding (Figure 3d)” value (eosinophils (Siglec-8+)) was 25.7 and 26.1 and 45. The “Siglec-Fc binding (Figure 3d)” value (monocytes (CD14+)) was 97.7 and 42.1 and 63.5, the “Siglec-Fc binding (Figure 3d)” value (basophils (CCR3+)) was 38.5 and 41.6 and 74.4 and the “binding of pre-complexed Siglec-Fc (MFI)” value (T47D) was 86.1 and 97.6 and 94.1. For the same substance, the “binding of pre-complexed Siglec-Fc (MFI)” value (BT549) was 101 and 105 (2×), the “binding of pre-complexed Siglec-Fc (MFI)” value (MDA-MB-468) was 125 and 126 and 131 and the “binding of pre-complexed Siglec-Fc (MFI)” value (ZR-75-1) was 269 and 266 and 255. The “binding of pre-complexed Siglec-Fc (MFI)” value (MCF7) was 129 (2×) and 126, the “binding of pre-complexed Siglec-Fc (MFI)” value (HS578T) was 127 and 117 and 114 and the “binding of pre-complexed Siglec-Fc (MFI)” value (MDA-MB-231) was 154 (2×) and 157.
With Siglec-2 the Binding (CMAS−/− HEK293 cells) was 86 and 84.2, the Binding (HEK293T cells; Suppl Fig 7b, HEK WT) was 631 and 654 and 721 and the Binding ([6]; +Neuraminidase) was 88.8 and 91.5 and 90.6. The Binding ([6]; -Neuraminidase) was 2128 and 1497 and 1576.
For “Streptavidin: protein binding Strep-tag II with intermediate affinity [reference compound]”, the Kd (Strep-tag II) is listed as 72 µM and the “Siglec-1-Fc Binding” value (U937 cells; Suppl Fig 4a, Streptavidin alone) is listed as 150 and 128 and 134.
